# “Also recorded” adds a separate entry of the source.
# Assays:
# Assay type in all cases: cell-based
# [1] = tested on: postnatal (P3) murine (CD1) OC explants; assay: siHes1 NPs with Tideglusib in neomycin-ablated OC explants
# Procedure: Postnatal (P3) murine (CD1) OC explants were exposed to the ototoxic aminoglycoside, neomycin, for 24 h and then treated with 60 nM siHes1 NP alone; the GSK3 inhibitor, Tideglusib (TIDE), alone (2 μM); or a combination of 60 nM siHes1 NP with escalating doses of Tideglusib (0.5, 2, or 10 μM) for 6d prior to fixation and immunolabeling against the HC-specific marker, Myo7a. Middle turn as fixed reference among images shown.
# NEO-ablated OCs were treated with a suboptimal (60 nM) dose of siHes1 NPs either alone or in combination with escalating doses of TIDE. […] The sustained release profile of siHes1 NPs mimics staged application of the two therapeutics.
# Applicants hypothesized that the delayed, yet sustained, release of siHes1 from biocompatible PLGA NPs would recapitulate the therapeutic attributes of staged application of a GSK3 inhibitor and siRNA against Hes1 when the two drugs were co-administered. To test this hypothesis, a sub-maximal efficacious dose (60 nM) of siHes1 NPs with escalating doses (0.5, 2, and 10 μM) of the GSK3I, tideglusib, in order to have sufficient experimental margin were used to assess a regenerative dose-response profile in organotypic cultures of neomycin (NEO)—exposed organs of Corti (OCs). Using this paradigm, NEO-ablated OCs were subsequently cultured with siHes1 NPs alone or in combination with Tideglusib over the course of six days prior to fixation and immunohistological analyses.
# [2] = tested on: sensory epithelial region of postnatal day 3 OCs; assay: EdU-labeling of mitotically-active cells in postnatal organ of Corti; conditions: 0.5 or 2.0 μM, 72 hours, vs vehicle
# Procedure: FIG. 21 depicts EdU-labeling of mitotically-active cells in the postnatal organ of Corti in response to Tideglusib treatment. Postnatal day 3 OCs were harvested and cultured in vitro for 24 hours prior to the addition of culture media containing 10 μM EdU in the presence of either vehicle alone (DMSO) or tideglusib (TIDE) at a final concentration of 0.5 or 2.0 μM. Organotypic cultures were cultured continuously in the presence of these agents for 72 hours prior to fixation and visualization of EdU-positive nuclei as described above. Images of the middle turn of the OC from each group are shown. Brackets denote the sensory epithelial region in each image.
# A targeted pilot experiment was conducted in which postnatal OCs were cultured continuously for 72 hours in the presence of EdU and either tideglusib or vehicle alone to assess whether the GSK3 inhibitor was capable of inducing a mitotic response in the sensory epithelial region of the OC. […] Follow-up analyses will indicate whether this tideglusib-induced proliferative response in the OC involves supporting cells, hair cells, or both, using cell type-specific markers.
# [3] = tested on: organotypic cultures of murine OCs; assay: Hair cell counts in neomycin-damaged OC cultures treated with TIDE and/or siHES1 lipofection complexes; conditions: neomycin 0.7 mM 24 h; 10.0 μM TIDE, siHES1 20 nM lipofection complexes (FIG. 22)
# Procedure: FIG. 22 depicts hair cells (Myo7a+ cells) quantified from the mid-apical and middle regions of organotypic cultures of murine OCs following a 24 h exposure to neomycin (0.7 mM) and subsequent recovery in the presence or absence of the GSK3 inhibitor Tideglusib (TIDE) and/or siHES1 (20 nM) lipofection complexes (JetSI, Polyplus).
# FIG. 23 depicts hair cells (Myo7a+ cells) quantified from the mid-apical and middle regions of organotypic cultures of murine OCs following a 24 h exposure to neomycin (0.7 mM) and subsequent recovery in the presence or absence of the GSK3 inhibitor Tideglusib (TIDE) and/or siHES1 (20 nM) lipofection complexes (JetSI, Polyplus).
# FIG. 25 depicts hair cells (Myo7a+ cells) quantified from the mid-apical, middle, and mid-basal regions of organotypic cultures of murine OCs following a 24 h exposure to neomycin (0.7 mM) and subsequent recovery in the presence or absence of the GSK3 inhibitor Tideglusib (TIDE) and/or siHES1 (20 nM) lipofection complexes (JetSI, Polyplus). One set of NEO-ablated OCs were treated with TIDE then siHes1 in the presence of 2 ng/mL FGF-2 as a media supplement with the aim of potentially enhancing the effects of Tideglusib.
# The protocol described above for BIO is used, substituting the addition of BIO for 10.0 μM Tideglusib (TIDE). A third treatment group is added, where Tideglusib is included in the culture medium after siHes1, parallel to the other protocols: on P4 or P5 (depending on whether there was an ototoxic insult to simulate hair cell loss) the control media is added with or without the inclusion of 10.0 μM TIDE; on P7 siHes1 is added in the presence of absence of TIDE; and on P9 10.0 μM Tideglusib is included in the media for a subset of cultures. On P11, all media is replaced with fresh media without any therapeutics. On P12, the tissues are fixed for immunolabeling. An example of comparative analyses from this treatment paradigm, following an exposure to the ototoxic aminoglycoside, NEO, is depicted in FIG. 22.
# This experimental paradigm was again repeated adding additional treatment groups where FGF-2 was optionally included in the culture medium at 2 ng/mL at P5, P7, and P9 for a subset of cultures.
smiles,measurement,setting,value
"O=c1sn(-c2cccc3ccccc23)c(=O)n1Cc1ccccc1 [TIDE, tideglusib]","siHes1 NP regenerative efficacy, middle turn","[1]; 10 μM Tideglusib with 60 nM siHes1 NPs, relative to siHes1 NPs alone",statistically-significant increases
same,"siHes1 NP regenerative efficacy, basal turn","[1]; 2 and 10 μM Tideglusib with 60 nM siHes1 NPs, relative to siHes1 NPs alone",statistically-significant increases
same,HC numbers / densities with combined treatment,"[1]; NEO-ablated OCs, 60 nM siHes1 NP plus Tideglusib 0.5, 2 or 10 μM, 6 d",concentration-dependent enhancement of siHes1 NP-induced hair cell (HC) regeneration
same,regenerative response (HC numbers),"[1]; Tideglusib alone (2 μM), NEO-ablated OCs",did not induce a statistically significant regenerative response
same,"siHes1 NP regenerative efficacy, mid-apical region",[1]; Tideglusib with 60 nM siHes1 NPs vs siHes1 NPs alone,no statistically-significant differences between the treatment groups
same,mitotic response (EdU-positive nuclei) in sensory epithelial region,[2],greater incidence of EdU-positive nuclei; also recorded: markedly greater mitotic response in the sensory epithelial region
same,"Hair Cell Counts ± SEM, Mid-apical turn",[3],9.1 ± 1.6
same,"Hair Cell Counts ± SEM, Middle Turn",[3],2.8 ± 0.8

# Reference: US11013752B2, “Combination therapies for inner ear sensory hair cell regeneration/replacement” (Hough Ear Institute, priority 2016, dated 2021)
